Measurements published in US10407467B2, “Polymyxin derivatives and their use in combination therapy together with different antibiotics” (priority 2013, dated 2019).
Structures can show the parent of a compound that is named as a salt. Where two headings read alike, the source gives them in different places. One block for each molecule: values may come before it. Numbered stars: 1 amine (or outer) side, 2 acyl side, 3 side chain; on linkers, the order of the positions; unused ones are H or OH. Bridge positions count the residues as written; N and C are the ends. Square brackets hold non-standard residues; d marks the D form. Peptide text beside a SMILES is read from it. * marks the point of attachment. ξ: configuration not given here. ξHexahydromandeloyl = O=C(C(O)C1CCCCC1)*; ξβ3hGly(cHex) = NC(CC(=O)*)C1CCCCC1; X12 = CC(C)C[C@H](N)[C@H](O)C(=O)*; X22 = O=C(C[C@@H]1Cc2ccccc2CN1)*; Thr(3ξ) = CC(O)[C@H](N)C(=O)O; NH(2-ClPh) = Clc1ccccc1N*; Dab = NCC[C@H](N)C(=O)O; X3 = O=C([C@H]1CCCNC1)*; Dap = NC[C@H](N)C(=O)O; CO = O=C([*:1])[*:2]; Ahp = NCCCCCCC(=O)O

Experiments:
HK-2 cell line = experiment: In vitro renal cell toxicity assay (resazurin reduction); assay type: cell-based, human
P. aeruginosa ATCC 27853 = conditions: ATCC 27853, in vivo
Acinetobacter baumannii = experiment: MIC, compound in combination with a second agent (broth microdilution); assay type: cell-based; conditions: 1:1 (wt:wt) combination with Rifampicin, MIC = total drug concentration; for MIC A. baumannii ATCC BAA-747: strain ATCC BAA-747; for MIC A. baumannii CCUG57249: strain CCUG57249; for MIC A. baumannii NCTC 13423: strain NCTC 13423
Outline: (§1)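 Broth microdilution with inoculum from 18-24 h Mueller-Hinton agar colonies adjusted to 0.5 McFarland, up to four strains per species. Compound combined 1:1 w/w with second agent (e.g. rifampicin), mass as salt form; MIC is total drug concentration. Duplicates, lower value reported if within 2-fold; modal value for repeat tests.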

Escherichia coli [1] = experiment: as above; assay type: cell-based; conditions: 1:1 (wt:wt) combination with Rifampicin, MIC = total drug concentration; for MIC E. coli ATCC25922: strain ATCC25922; for MIC E. coli NCTC9001: strain NCTC9001
Outline: as §1

Klebsiella pneumoniae [2] = experiment: as above; assay type: cell-based; conditions: 1:1 (wt:wt) combination with Rifampicin, MIC = total drug concentration; for MIC K. pneumoniae ATCC 4352: strain ATCC 4352; for MIC K. pneumoniae ATCC-BAA-2146: strain ATCC-BAA-2146; for MIC K. pneumoniae CCUG-59348: strain CCUG-59348
Outline: as §1

Pseudomonas aeruginosa [3] = experiment: as above; assay type: cell-based; conditions: 1:1 (wt:wt) combination with Rifampicin, MIC = total drug concentration; for MIC P. aeruginosa ATCC 27853: strain ATCC 27853; for MIC P. aeruginosa ATCC-47: strain ATCC-47; for MIC P. aeruginosa CCUG 59626: strain CCUG 59626
Outline: as §1

Escherichia coli [4] = experiment: MIC, sole activity (no second agent); assay type: cell-based; conditions: in the absence of Rifampicin; strain ATCC25922
Outline: (§2)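 Compound tested without a second agent in cation-adjusted MHB, up to four strains per species, inoculum at 0.5 McFarland from colonies grown 18-24 h on Mueller-Hinton agar. Run in duplicate, invalid beyond 2-fold disagreement, lower duplicate or modal repeat value given, expressed relative to Polymyxin B.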

Klebsiella pneumoniae [5] = experiment: MIC, sole activity (no second agent); assay type: cell-based; conditions: in the absence of Rifampicin; strain ATCC 4352
Outline: as §2

Pseudomonas aeruginosa [6] = experiment: MIC, sole activity (no second agent); assay type: cell-based; conditions: in the absence of Rifampicin; strain ATCC27853
Outline: as §2

Molecule: CCCCCC(N)CC(=O)N[C@H](C(=O)N[C@@H](CCN)C(=O)N[C@H]1CCNC(=O)[C@H](C(C)O)NC(=O)[C@H](CCN)NC(=O)[C@H](CCN)NC(=O)[C@H](CC(C)C)NC(=O)[C@@H](Cc2ccccc2)NC(=O)[C@H](CCN)NC1=O)C(C)O (single isomer, unassigned; isomer 2) [Example A33, 3-(RS)-3-amino octanoyl polymyxin B nonapeptide. Isomer 2]
HK-2 IC50 rel to PMB (HK-2 cell line): 9.7
HK-2 relative to PMB (HK-2 cell line): 9.7
HK-2 toxicity (IC50) compared with PMB (HK-2 cell line): significantly increased recorded IC50 values
Log reduction from vehicle (CFU/g) (P. aeruginosa ATCC 27853; 3.4 mg/kg, 24 h): 3.54 log CFU/g

MIC A. baumannii ATCC BAA-747 (Acinetobacter baumannii): ≤0.06 micrograms/mL
MIC A. baumannii CCUG57249 (Acinetobacter baumannii): 0.125 micrograms/mL
MIC A. baumannii NCTC 13423 (Acinetobacter baumannii): ≤0.06 micrograms/mL
MIC A. baumannii NCTC 13424 (Acinetobacter baumannii; strain NCTC 13424): 0.125 micrograms/mL
MIC E. coli ATCC25922 (Escherichia coli [1]): 0.125 micrograms/mL
MIC E. coli NCTC9001 (Escherichia coli [1]): 0.5 micrograms/mL
MIC K. pneumoniae ATCC 4352 (Klebsiella pneumoniae [2]): 0.125 micrograms/mL
MIC K. pneumoniae ATCC-BAA-2146 (Klebsiella pneumoniae [2]): 0.5 micrograms/mL
MIC K. pneumoniae CCUG-59348 (Klebsiella pneumoniae [2]): 4 micrograms/mL
MIC K. pneumoniae NCTC 13438 (Klebsiella pneumoniae [2]; strain NCTC 13438): 1 micrograms/mL
MIC P. aeruginosa ATCC 27853 (Pseudomonas aeruginosa [3]): 0.25 micrograms/mL
MIC P. aeruginosa ATCC-47 (Pseudomonas aeruginosa [3]): 0.25 micrograms/mL
MIC P. aeruginosa CCUG 59626 (Pseudomonas aeruginosa [3]): 0.125 micrograms/mL
MIC E. coli ATCC25922 (Escherichia coli [4]): 1 micrograms/mL
MIC K. pneumoniae ATCC 4352 (Klebsiella pneumoniae [5]): 2 micrograms/mL
MIC P. aeruginosa ATCC 27853 (Pseudomonas aeruginosa [6]): 0.25 micrograms/mL
Molecule: CC(C)C[C@@H]1NC(=O)[C@@H](Cc2ccccc2)NC(=O)[C@H](CCN)NC(=O)[C@@H](NC(=O)[C@H](CCN)NC(=O)[C@@H](NC(=O)CCCCCCN)C(C)O)CCNC(=O)[C@H](C(C)O)NC(=O)[C@H](CCN)NC(=O)[C@H](CCN)NC1=O (stereo partly drawn) [Example 13, 7-Aminoheptanoyl polymyxin B nonapeptide] (H-[Ahp][Thr(3ξ)][Dab][Dab][Dab][dF]L[Dab][Dab][Thr(3ξ)]; lactam 4-C)
HK-2 relative to PMB (HK-2 cell line): 14
HK-2 toxicity (IC50) compared with PMB (HK-2 cell line): significantly increased recorded IC50 values

Molecule: CC(C)C[C@@H]1NC(=O)[C@@H](Cc2ccccc2)NC(=O)[C@H](CCN)NC(=O)[C@@H](NC(=O)[C@H](CCN)NC(=O)[C@@H](NC(=O)[C@H](CCN)NC(=O)C(O)C2CCCCC2)C(C)O)CCNC(=O)[C@H](C(C)O)NC(=O)[C@H](CCN)NC(=O)[C@H](CCN)NC1=O (stereo partly drawn) [Example A3, 2-(RS)-(2-Hydroxy-2-cyclohexyl)ethanoyl polymyxin B decapeptide] (ξHexahydromandeloyl-[Dab][Thr(3ξ)][Dab][Dab][Dab][dF]L[Dab][Dab][Thr(3ξ)]; lactam 4-C)
HK-2 IC50 rel to PMB (HK-2 cell line): 4
Log reduction from vehicle (CFU/g) (P. aeruginosa ATCC 27853; iv, 2 mg/kg, 9 h): 0.12 log CFU/g
Log reduction from vehicle (CFU/g) (P. aeruginosa ATCC 27853; iv, 4 mg/kg, 9 h): 3.34 log CFU/g

Molecule: CC(C)C[C@@H]1NC(=O)[C@@H](Cc2ccccc2)NC(=O)[C@H](CCN)NC(=O)[C@@H](NC(=O)[C@H](CCN)NC(=O)[C@@H](NC(=O)[C@H](CN)NC(=O)CC(N)C2CCCCC2)C(C)O)CCNC(=O)[C@H](C(C)O)NC(=O)[C@H](CCN)NC(=O)[C@H](CCN)NC1=O (stereo partly drawn) [Example A6, [3(R,S)-3-Amino-3-cyclohexanepropanoyl]-L-Dap-polymyxin B nonapeptide] ({ξβ3hGly(cHex)}-[Dap][Thr(3ξ)][Dab][Dab][Dab][dF]L[Dab][Dab][Thr(3ξ)]; lactam 4-C)
HK-2 IC50 rel to PMB (HK-2 cell line): 3

Molecule: CC(C)C[C@@H]1NC(=O)[C@@H](Cc2ccccc2)NC(=O)[C@H](CCN)NC(=O)[C@@H](NC(=O)[C@H](CN)NC(=O)[C@@H](NC(=O)[C@H](CCN)NC(=O)[C@H]2CCCNC2)C(C)O)CCNC(=O)[C@H](C(C)O)NC(=O)[C@H](CCN)NC(=O)[C@H](CCN)NC1=O (stereo partly drawn) [Example A13, [(3S)-piperidine-3-carbonyl]-L-Dab-L-Thr-L-Dap polymyxin B heptapeptide] (X3-[Dab][Thr(3ξ)][Dap][Dab][Dab][dF]L[Dab][Dab][Thr(3ξ)]; lactam 4-C)
HK-2 IC50 rel to PMB (HK-2 cell line): 10

Molecule: CC(C)C[C@@H]1NC(=O)[C@@H](Cc2ccccc2)NC(=O)[C@H](CCN)NC(=O)[C@@H](NC(=O)[C@H](CCN)NC(=O)[C@@H](NC(=O)C[C@@H]2Cc3ccccc3CN2)C(C)O)CCNC(=O)[C@H](C(C)O)NC(=O)[C@H](CCN)NC(=O)[C@H](CCN)NC1=O (stereo partly drawn) [Example A14, (S)-2-((1,2,3,4)-tetrahydroisoquinolin-3-yl) ethanoyl polymyxin B nonapeptide] (X22-[Thr(3ξ)][Dab][Dab][Dab][dF]L[Dab][Dab][Thr(3ξ)]; lactam 3-C)
HK-2 IC50 rel to PMB (HK-2 cell line): 5.3

Molecule: CC(C)C[C@@H]1NC(=O)[C@@H](Cc2ccccc2)NC(=O)[C@H](CCN)NC(=O)[C@@H](NC(=O)[C@H](CN)NC(=O)[C@@H](NC(=O)[C@H](CCN)NC(=O)[C@@H](O)[C@@H](N)CC(C)C)C(C)O)CCNC(=O)[C@H](C(C)O)NC(=O)[C@H](CCN)NC(=O)[C@H](CCN)NC1=O (stereo partly drawn) [Example A17, [(2S,3S)-3-Amino-2-hydroxy-5-methylhexanoyl]-L-Dab-L-Thr-L-Dap polymyxin B heptapeptide] (X12-[Dab][Thr(3ξ)][Dap][Dab][Dab][dF]L[Dab][Dab][Thr(3ξ)]; lactam 4-C)
HK-2 IC50 rel to PMB (HK-2 cell line): 5.5

Molecule: CC(C)C[C@@H]1NC(=O)[C@@H](Cc2ccccc2)NC(=O)[C@H](CCN)NC(=O)[C@@H](NC(=O)[C@H](CCN)NC(=O)[C@@H](NC(=O)[C@H](CCN)NC(=O)[C@H]2CCCNC2)C(C)O)CCNC(=O)[C@H](C(C)O)NC(=O)[C@H](CCN)NC(=O)[C@H](CCN)NC1=O (stereo partly drawn) [Example A22, (S)-Piperidine-3-carbonyl polymyxin B decapeptide] (X3-[Dab][Thr(3ξ)][Dab][Dab][Dab][dF]L[Dab][Dab][Thr(3ξ)]; lactam 4-C)
HK-2 IC50 rel to PMB (HK-2 cell line): 7.4

Molecule: CC(C)C[C@@H]1NC(=O)[C@@H](Cc2ccccc2)NC(=O)[C@H](CCN)NC(=O)[C@@H](NC(=O)[C@H](CCN)NC(=O)[C@@H](NC(=O)[C@H](CCN)NC(=O)Nc2ccccc2Cl)C(C)O)CCNC(=O)[C@H](C(C)O)NC(=O)[C@H](CCN)NC(=O)[C@H](CCN)NC1=O (stereo partly drawn) [Example C2, CB-182, 804 sulphate salt, reference compound] ({NH(2-ClPh)-CO}-[Dab][Thr(3ξ)][Dab][Dab][Dab][dF]L[Dab][Dab][Thr(3ξ)]; lactam 4-C)
MIC A. baumannii ATCC BAA-747 (Acinetobacter baumannii): 0.25 micrograms/mL
MIC A. baumannii CCUG57249 (Acinetobacter baumannii): 0.5 micrograms/mL
MIC A. baumannii NCTC 13423 (Acinetobacter baumannii): 0.25 micrograms/mL
MIC E. coli ATCC25922 (Escherichia coli [1]): 0.125 micrograms/mL
MIC E. coli NCTC9001 (Escherichia coli [1]): 0.25 micrograms/mL
MIC K. pneumoniae ATCC 4352 (Klebsiella pneumoniae [2]): 0.25 micrograms/mL
MIC K. pneumoniae ATCC-BAA-2146 (Klebsiella pneumoniae [2]): 0.5 micrograms/mL
MIC K. pneumoniae CCUG-59348 (Klebsiella pneumoniae [2]): 2 micrograms/mL
MIC P. aeruginosa ATCC 27853 (Pseudomonas aeruginosa [3]): 0.5 micrograms/mL
MIC P. aeruginosa ATCC CRM-9027 (Pseudomonas aeruginosa [3]; strain ATCC CRM-9027): 0.5 micrograms/mL
MIC P. aeruginosa ATCC-47 (Pseudomonas aeruginosa [3]): 0.25 micrograms/mL
MIC P. aeruginosa CCUG 59626 (Pseudomonas aeruginosa [3]): 0.125 micrograms/mL
IC50 HK-2 cells (HK-2 cell line; HK-2 cells, 24 h, resazurin reduction, mean values of up to 6 independent studies): 22 µg/mL

Molecule: Octanoyl polymyxin B nonapeptide, sulfate salt [Example C6, reference compound]
HK-2 relative to PMB (HK-2 cell line): 3.3
HK-2 toxicity (IC50) compared with PMB (HK-2 cell line): reduced toxicity against HK-2 compared with PMB
